Results reported in US11247990B1, “Bicyclic fused pyridine compounds as inhibitors of TAM kinases” (ARRAY BIOPHARMA INC., priority 2017, dated 2022).
Structures can show the parent of a compound that is named as a salt.

What was measured:
Conditions in all cases: averaged IC50
[1] = target: GST-tagged recombinant human TYRO3 kinase domain (Homo sapiens (Human), UniProt Q06418); assay: TYRO3 Enzyme Assay (LanthaScreen Eu Kinase Binding, TR-FRET)
Summary of the method: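 LanthaScreen Eu binding (tracer displacement) format read by TR-FRET after 60 min at 22 °C. Emission ratio converted to percent of control; IC50 taken where a 4-parameter logistic fit crosses 50 POC.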

[2] = target: His-tagged recombinant human AXL cytoplasmic domain (Homo sapiens (Human), UniProt P30530); assay: AXL Enzyme Assay (LanthaScreen Eu Kinase Binding, TR-FRET)
Sequence of His-tagged recombinant human AXL cytoplasmic domain (P30530 473-894): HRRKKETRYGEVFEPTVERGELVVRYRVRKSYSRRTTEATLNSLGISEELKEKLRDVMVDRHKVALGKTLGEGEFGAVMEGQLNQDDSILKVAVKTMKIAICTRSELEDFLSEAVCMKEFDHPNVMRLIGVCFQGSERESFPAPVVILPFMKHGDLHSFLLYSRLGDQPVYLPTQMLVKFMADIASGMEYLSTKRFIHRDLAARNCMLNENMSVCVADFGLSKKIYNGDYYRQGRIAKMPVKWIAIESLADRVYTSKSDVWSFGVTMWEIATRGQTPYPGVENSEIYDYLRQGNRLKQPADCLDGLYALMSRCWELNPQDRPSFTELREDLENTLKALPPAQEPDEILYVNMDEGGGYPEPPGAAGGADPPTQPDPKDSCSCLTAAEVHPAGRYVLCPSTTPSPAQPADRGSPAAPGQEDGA
Summary of the method: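 LanthaScreen Eu kinase binding format, incubated 60 min at 22 °C and read by TR-FRET dual-wavelength emission ratio as percent of control. IC50 taken where a 4-parameter logistic fit crosses 50 POC.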

[3] = target: His-tagged recombinant human MER cytoplasmic domain (Homo sapiens (Human), UniProt Q12866); assay: MER Enzyme Assay (LanthaScreen Eu Kinase Binding, TR-FRET)
Sequence of His-tagged recombinant human MER cytoplasmic domain (Q12866 527-999): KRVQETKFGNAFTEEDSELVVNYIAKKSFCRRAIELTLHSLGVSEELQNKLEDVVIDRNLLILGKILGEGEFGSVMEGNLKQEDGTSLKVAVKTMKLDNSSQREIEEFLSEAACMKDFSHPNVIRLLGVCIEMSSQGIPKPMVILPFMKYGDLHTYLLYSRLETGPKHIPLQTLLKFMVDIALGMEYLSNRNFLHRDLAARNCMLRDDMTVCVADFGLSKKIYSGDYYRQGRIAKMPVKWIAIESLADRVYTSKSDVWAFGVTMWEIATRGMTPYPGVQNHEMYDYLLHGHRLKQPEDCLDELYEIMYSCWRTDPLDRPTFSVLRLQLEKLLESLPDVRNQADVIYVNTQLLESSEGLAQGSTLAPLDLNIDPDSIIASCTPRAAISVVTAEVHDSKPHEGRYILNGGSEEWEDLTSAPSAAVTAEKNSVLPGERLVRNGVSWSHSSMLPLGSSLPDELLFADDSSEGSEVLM
Summary of the method: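 LanthaScreen Eu kinase binding (tracer displacement) assay with His-tagged human MER cytoplasmic domain, 60 min incubation at 22 °C. TR-FRET dual-wavelength emission ratio converted to percent of control; IC50 is where the 4-parameter logistic fit crosses 50 POC.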

Sequence of GST-tagged recombinant human TYRO3 kinase domain (Q06418 518-790): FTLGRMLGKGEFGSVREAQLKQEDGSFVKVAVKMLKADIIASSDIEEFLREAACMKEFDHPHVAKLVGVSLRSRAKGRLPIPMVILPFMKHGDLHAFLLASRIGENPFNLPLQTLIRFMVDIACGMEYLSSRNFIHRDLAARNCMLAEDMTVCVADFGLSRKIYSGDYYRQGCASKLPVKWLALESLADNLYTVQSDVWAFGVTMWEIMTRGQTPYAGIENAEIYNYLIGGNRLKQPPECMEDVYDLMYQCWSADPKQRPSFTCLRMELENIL

Compound | IC50 [1] [nM] | IC50 [2] [nM] | IC50 [3] [nM]
CCNc1cc2c(cn1)c(N1CCOCC1)nn2[C@H]1CC[C@@H](Oc2nccc(C(F)(F)F)c2F)CC1 [Example 330, N-ethyl-1-((1s,4s)-4-((3-fluoro-4-(trifluoromethyl)pyridin-2-yl)oxy)cyclohexyl)-3-morpholino-1H-pyrazolo[4,3-c]pyridin-6-amine] | 10 to 100 | < 10 | < 10
CCNc1cc2c(cn1)c(N1CCC(OC)CC1)nn2[C@H]1CC[C@@H](Oc2nccc(C(F)(F)F)c2F)CC1 [Example 333, N-ethyl-1-((1s,4s)-4((3-fluoro-4-(trifluoromethyl)pyridin-2-yl)oxy)cyclohexyl)-3-(4-methoxypiperidin-1-yl)-1H-pyrazolo[4,3-c]pyridin-6-amine] | < 10 | < 10 | < 10
CNc1cc2c(cn1)c(-c1cnn(C[C@H](N)CO)c1)nn2[C@H]1CC[C@@H](Oc2ccccc2F)CC1 [Example 433, (S)-2-amino-3-(4-(1-((1s,4S)-4-(2-fluorophenoxy)cyclohexyl)-6-(methylamino)-1H-pyrazolo[4,3-c]pyridin-3-yl)-1H-pyrazol-1-yl)propan-1-ol] | < 10 | < 10 | < 10
CNc1cc2c(cn1)c(-c1cnn(CC(C)(C)O)c1)nn2[C@H]1CC[C@@H](Oc2ccccc2F)CC1 [Example 396, 1-(4-(1-((1s,4s)-4-(2-fluorophenoxy)cyclohexyl)-6-(methylamino)-1H-pyrazolo[4,3-c]pyridin-3-yl)-1H-pyrazol-1-yl)-2-methylpropan-2-ol] | 10 to 100 | < 10 | < 10
CNc1cc2c(cn1)c(-c1ccn(C)c(=O)c1)nn2[C@H]1CC[C@@H](Oc2cccnc2C(F)(F)F)CC1 [Example 216, 1-methyl-4-(6-(methylamino)-1-((1s,4s)-4-((2-(trifluoromethyl)pyridin-3-yl)oxy)cyclohexyl)-1H-pyrazolo[4,3-c]pyridin-3-yl)pyridin-2(1H)-one] | < 10 | < 10 | < 10
CNc1cc2c(cn1)c(-c1ccc3c(c1)CNC3=O)nn2[C@H]1CC[C@@H](Oc2cccnc2C(F)(F)F)CC1 [Example 218, 5-(6-(methylamino)-1-((1s,4s)-4-((2-(trifluoromethyl)pyridin-3-yl)oxy)cyclohexyl)-1H-pyrazolo[4,3-c]pyridin-3-yl)isoindolin-1-one] | < 10 | < 10 | < 10
CCNc1cc2c(cn1)c(-c1cnn([C@H]3CC[C@H](O)CC3)c1)nn2[C@H]1CC[C@@H](Oc2nccc(C(F)(F)F)c2F)CC1 [Example 272, (1R,4r)-4-(4-(6-(ethylamino)-1-((1s,4S)-4-((3-fluoro-4-(trifluoromethyl)pyridin-2-yl)oxy)cyclohexyl)-1H-pyrazolo[4,3-c]pyridin-3-yl)-1H-pyrazol-1-yl)cyclohexan-1-ol] | 10 to 100 | < 10 | < 10
CCNc1cc2c(cn1)c(C1CCN(C(=O)C(C)C)CC1)nn2[C@H]1CC[C@@H](Oc2nccc(C(F)(F)F)c2F)CC1 [Example 329, 1-(4-(6-(ethylamino)-1-((1s,4s)-4-((3-fluoro-4-(trifluoromethyl)pyridin-2-yl)oxy)cyclohexyl)-1H-pyrazolo[4,3-c]pyridin-3-yl)piperidin-1-yl)-2-methylpropan-1-one] | 10 to 100 | < 10 | < 10
CCNc1cc2c(cn1)c(-c1cnn(C(C)(C)C#N)c1)nn2[C@H]1CC[C@@H](Oc2cn[nH]c2C(F)(F)F)CC1 [Example 312, 2-(4-(6-(ethylamino)-1-((1s,4s)-4-((5-(trifluoromethyl)-1H-pyrazol-4-yl)oxy)cyclohexyl)-1H-pyrazolo[4,3-c]pyridin-3-yl)-1H-pyrazol-1-yl)-2-methylpropanenitrile] | < 10 | < 10 | < 10
CNc1cc2c(cn1)c(-c1cnn(CC3CCOCC3)c1)nn2[C@H]1CC[C@@H](Oc2nccnc2C)CC1 [Example 215, N-methyl-1-((1s,4s)-4-((3-methylpyrazin-2-yl)oxy)cyclohexyl)-3-(1-((tetrahydro-2H-pyran-4-yl)methyl)-1H-pyrazol-4-yl)-1H-pyrazolo[4,3-c]pyridin-6-amine] | 10 to 100 | < 10 | < 10
CCNc1cc2c(cn1)c(N1CC[C@@H](N(C)C)C1)nn2[C@H]1CC[C@@H](Oc2nccc(C(F)(F)F)c2F)CC1 (stereo in doubt) [Example 334, 3-(®-3-(dimethylamino)pyrrolidin-1-yl)-N-ethyl-1-((1s,4S)-4-((3-fluoro-4-(trifluoromethyl)pyridin-2-yl)oxy)cyclohexyl)-1H-pyrazolo[4,3-c]pyridin-6-amine] | < 10 | < 10 | < 10
CCNc1cc2c(cn1)c(-c1ccc(CN3CCN(C)CC3)cc1)nn2[C@H]1CC[C@@H](Oc2cn(C)nc2C(F)(F)F)CC1 [Example 289, N-ethyl-1-((1s,4s)-4-((1-methyl-3-(trifluoromethyl)-1H-pyrazol-4-yl)oxy)cyclohexyl)-3-(4-((4-methylpiperazin-1-yl)methyl)phenyl)-1H-pyrazolo[4,3-c]pyridin-6-amine] | < 10 | < 10 | < 10
CCNc1cc2c(cn1)c(N1CC[C@@H](NC)C1)nn2[C@H]1CC[C@@H](Oc2cccc(C(F)(F)F)c2F)CC1 [Example 492, N-ethyl-1-((1s,4S)-4-(2-fluoro-3-(trifluoromethyl)phenoxy)cyclohexyl)-3-((R)-3-(methylamino)pyrrolidin-1-yl)-1H-pyrazolo[4,3-c]pyridin-6-amine] | 10 to 100 | < 10 | < 10
CCNc1cc2c(cn1)c(N1CCC(NC)CC1)nn2[C@H]1CC[C@@H](Oc2nccc(C(F)(F)F)c2F)CC1 [Example 344, N-ethyl-1-((1s,4s)-4((3-fluoro-4-(trifluoromethyl)pyridin-2-yl)oxy)cyclohexyl)-3-(4-(methylamino)piperidin-1-yl)-1H-pyrazolo[4,3-c]pyridin-6-amine] | 10 to 100 | < 10 | < 10
CCNc1cc2c(cn1)c(-c1ccn(C)c(=O)c1)nn2[C@H]1CC[C@@H](Oc2cccnc2C(F)(F)F)CC1 [Example 219, 4-(6-(ethylamino)-1-((1s,4s)-4-((2-(trifluoromethyl)pyridin-3-yl)oxy)cyclohexyl)-1H-pyrazolo[4,3-c]pyridin-3-yl)-1-methylpyridin-2(1H)-one hydrochloride] | < 10 | < 10 | < 10
CCNc1cc2c(cn1)c(-c1cnn(C[C@@H](O)C(C)(C)O)c1)nn2[C@H]1CC[C@@H](Oc2cn(C)nc2C(F)(F)F)CC1 [Example 247, (R)-1-(4-(6-(ethylamino)-1-((1s,4S)-4-((1-methyl-3-(trifluoromethyl)-1H-pyrazol-4-yl)oxy)cyclohexyl)-1H-pyrazolo[4,3-c]pyridin-3-yl)-1H-pyrazol-1-yl)-3-methylbutane-2,3-diol] | < 10 | < 10 | < 10
CCNc1cc2c(cn1)c(-c1cnn(C[C@@H](O)CO)c1)nn2[C@H]1CC[C@@H](Oc2cn(C)nc2C(F)(F)F)CC1 [Example 283, ®-3-(4-(6-(ethylamino)-1-((1s,4S)-4-((1-methyl-3-(trifluoromethyl)-1H-pyrazol-4-yl)oxy)cyclohexyl)-1H-pyrazolo[4,3-c]pyridin-3-yl)-1H-pyrazol-1-yl)propane-1,2-diol] | < 10 | < 10 | < 10
